# Results published in US5270204A, “Covalent angiogenin/RNase hybrids” (The President and Fellows of Harvard College, priority 1992, dated 1993).
# T1: bovine pancreatic RNase A (Bos taurus, UniProt P61823)
# T1 sequence (P61823 27-150): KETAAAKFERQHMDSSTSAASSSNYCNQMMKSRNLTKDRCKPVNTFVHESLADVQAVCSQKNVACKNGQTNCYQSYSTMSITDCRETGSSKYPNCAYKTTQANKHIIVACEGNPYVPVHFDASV
# Assays:
# [1] = molecular target: human angiogenin, wild type (Homo sapiens, UniProt P03950); conditions: 30 mM Mes, 30 mM NaCl, pH 6.0 at 37° C.; cited from earlier work
# human angiogenin, wild type, sequence (P03950 25-147): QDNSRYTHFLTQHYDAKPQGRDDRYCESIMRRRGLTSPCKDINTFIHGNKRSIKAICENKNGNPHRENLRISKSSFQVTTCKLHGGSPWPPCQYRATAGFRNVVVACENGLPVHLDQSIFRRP
# [2] = molecular target: T1, bovine pancreatic RNase A; conditions: spectrophotometric assay, 30 mM Mes, 30 mM NaCl, pH 6.0 at 25° C.; cited from earlier work
# [3] = substrate: Nc1ccn([C@@H]2O[C@H](CO)[C@@H](OP(=O)(O)OC[C@H]3O[C@@H](n4cnc5c(=O)[nH]c(N)nc54)[C@H](O)[C@@H]3O)[C@H]2O)c(=O)n1; assay: Activity toward dinucleotide (3',5') phosphates, HPLC quantitation method; type: biochemical, human; conditions: other: ARH-III, 30 mM Mes, 30 mM NaCl, pH 6.0 at 37° C., 0.1 mM substrate, 2.8 μM ARH-III
# Procedure: (§1) Activity toward dinucleotide (3', 5') phosphates was determined by an HPLC quantitation method as described by Shapiro et al., 1988, Anal. Biochem. 175: 450-461; Harper and Vallee, 1989, Biochemistry 28: 1875-1884. Reaction mixtures (30 μL) contained 0.1 mM substrate, 2.8 μM ARH-III and were incubated for 4-24 hours at 37° C.
# (§2) The enzymatic activities of ARH-III toward tRNA, 18S and 28S rRNA, and dinucleotide substrates were very similar to those of angiogenin. […] Angiogenin and RNase A (obtained from Cooper Biochemicals) had maximal activities under these assay conditions at pH ~6.8 and ~8.1, respectively, consistent with previous results obtained by Lee & Vallee, 1989b, Biochem. and Biophys. Res. Commun. 161: 121-126. It is known that angiogenin catalyzes the cleavage of dinucleotide substrates, but at rates 5-6 orders of magnitude lower than those observed for RNase A (Shapiro et al., 1988, Anal. Biochem. 175: 450-461; Harper & Vallee, 1989, Biochemistry 28: 1875-1884). Its specificity is different from that of RNase A based on kcat /Km values for 4 different dinucleotides. In all cases, kcat /Km values were within 30% of those observed for angiogenin, and the relative specificity for the substrates was unchanged.
# (§3) ^a Assays with ARHIII and angiogenin were performed in 30 mM Mes, 30
# (§4) mM NaCl, pH 6.0 at 37° C.
# [4] = substrate: Nc1ccn([C@@H]2O[C@H](CO)[C@@H](OP(=O)(O)OC[C@H]3O[C@@H](n4cnc5c(N)ncnc54)[C@H](O)[C@@H]3O)[C@H]2O)c(=O)n1; assay: as above; type: biochemical, human; conditions: other: ARH-III, 30 mM Mes, 30 mM NaCl, pH 6.0 at 37° C., 0.1 mM substrate, 2.8 μM ARH-III
# Procedure: as §1, §2, §3, §4
# [5] = substrate: Nc1nc2c(ncn2[C@@H]2O[C@H](COP(=O)(O)O[C@H]3[C@@H](O)[C@H](n4ccc(=O)[nH]c4=O)O[C@@H]3CO)[C@@H](O)[C@H]2O)c(=O)[nH]1; assay: as above; type: biochemical, human; conditions: other: ARH-III, 30 mM Mes, 30 mM NaCl, pH 6.0 at 37° C., 0.1 mM substrate, 2.8 μM ARH-III
# Procedure: as §1, §2, §3, §4
# [6] = substrate: Nc1ncnc2c1ncn2[C@@H]1O[C@H](COP(=O)(O)O[C@H]2[C@@H](O)[C@H](n3ccc(=O)[nH]c3=O)O[C@@H]2CO)[C@@H](O)[C@H]1O; assay: as above; type: biochemical, human; conditions: other: ARH-III, 30 mM Mes, 30 mM NaCl, pH 6.0 at 37° C., 0.1 mM substrate, 2.8 μM ARH-III
# Procedure: as §1, §2, §3, §4
Molecule,kcat/Km [1],kcat/Km [2],kcat/Km [3],kcat/Km [4],kcat/Km [5],kcat/Km [6]
"Nc1ccn([C@@H]2O[C@H](CO)[C@@H](OP(=O)(O)OC[C@H]3O[C@@H](n4cnc5c(N)ncnc54)[C@H](O)[C@@H]3O)[C@H]2O)c(=O)n1 [CpA, cytidylyl-(3'-5') adenosine]",12 M⁻¹ s⁻¹,6e+06 M⁻¹ s⁻¹,,,,
"Nc1nc2c(ncn2[C@@H]2O[C@H](COP(=O)(O)O[C@H]3[C@@H](O)[C@H](n4ccc(=O)[nH]c4=O)O[C@@H]3CO)[C@@H](O)[C@H]2O)c(=O)[nH]1 [UpG, uridylyl-(3'-5') guanosine]",0.4 M⁻¹ s⁻¹,180000 M⁻¹ s⁻¹,,,,
"Nc1ccn([C@@H]2O[C@H](CO)[C@@H](OP(=O)(O)OC[C@H]3O[C@@H](n4cnc5c(=O)[nH]c(N)nc54)[C@H](O)[C@@H]3O)[C@H]2O)c(=O)n1 [CpG, cytidylyl-(3'-5') guanosine]",4.0 M⁻¹ s⁻¹,510000 M⁻¹ s⁻¹,,,,
"Nc1ncnc2c1ncn2[C@@H]1O[C@H](COP(=O)(O)O[C@H]2[C@@H](O)[C@H](n3ccc(=O)[nH]c3=O)O[C@@H]2CO)[C@@H](O)[C@H]1O [UpA, uridylyl-(3'-5') adenosine]",1.1 M⁻¹ s⁻¹,4e+06 M⁻¹ s⁻¹,,,,
"ARH-III, angiogenin/RNase hybrid: human angiogenin with residues 8-22 replaced by residues 7-21 of bovine pancreatic RNase A (Homo sapiens) (protein, the coding region for Met-(-1) through Asn-3; fragment C consisted of the coding region from Arg-24 through Pro-123; made in house; host or cells: E. coli W3110 (plasmid pARH-III)) QDNSRYTKFERQHMDSSTSAASDRYCESIMRRRGLTSPCKDINTFIHGNKRSIKAICENKNGNPHRENLRISKSSFQVTTCKLHGGSPWPPCQYRATAGFRNVVVACENGLPVHLDQSIFRRP",,,3.4 M⁻¹ s⁻¹,13 M⁻¹ s⁻¹,0.4 M⁻¹ s⁻¹,0.8 M⁻¹ s⁻¹
